Measured values from US20220048869A1, “PHENAZINE-BASED COMPOUND, ELECTROLYTIC LIQUID COMPRISING SAME FOR REDOX FLOW BATTERY, AND REDOX FLOW BATTERY” (LOTTE CHEMICAL CORPORATION, priority 2018, published 2022).
≈ marks a conversion by molar mass, not a printed value.

Assay: Solubility (maximum soluble amount) in acetonitrile solution including 0.1 M TBAPF6
Type: physicochemical
Details: for solubility: acetonitrile solution including 0.1 M TBAPF6, organic solvent or mixture, maximum soluble amount in acetonitrile solution including TBAPF6 at 0.1 M
Experimental: Each of the phenazine-based compounds provided according to Example 1 and Comparative Example 1 was dissolved in an acetonitrile solution including TBAPF6 at a concentration of 0.1 M, and the maximum soluble amounts of the phenazine-based compounds were identified, and the results are shown in the following Table 1.

Row | SMILES | solubility [mM] | fold higher solubility in a non-aqueous solvent than DMPZ (non-aqueous solvent, relative to DMPZ)
1 | CN1c2ccccc2N(C)c2ccccc21 [Comparative Example 1, 5,10-dimethyl-5,10-dihydrophenazine, reference compound] | 50 (≈ 10.5 mg/mL) | 
2 | COCCN1c2ccccc2N(CCOC)c2ccccc21 [Example 1, 5,10-bis(2-methoxyethyl)-5,10-dihydrophenazine] | 500 (≈ 149 mg/mL) | at least 10 fold
